Test results taken from PMC11096480, “The road to evolution of ProTx2: how to be a subtype-specific inhibition of human Nav1.7” (Frontiers in Pharmacology, 2024).
“Also recorded” adds a separate entry of the source. Where no end group is shown, it is not given here.

Assays:
[1] = target: human voltage-gated sodium channel Nav1.7, on CHO cells (human) (UniProt Q15858)
[2] = target: human voltage-gated sodium channel Nav1.4, on CHO cells (human) (UniProt P35499)
[3] = tested on: KM mice; experiment: formalin-induced paw-licking test; format: in vivo
Description: Male KM mice (18–22 g) were obtained from Liaoning Changsheng Biotechnology Co., Ltd. The mice were acclimated for 1 week at 18°C–22°C and 50%–70% humidity, following approval by the Animal Ethics Committee of Shenyang Pharmaceutical University, China. The pain response was assessed using a formalin-induced paw-licking test. The saline solution, 5 mg/kg morphine, commonly used analgesic medications in clinical practice, or 0.75 mg/kg peptides, ProTx II, and its mutants, were injected via the tail vein to relief the pain. After half an hour, a 20-μL 5% (v/v) formalin solution was administered as an activator to induce pain in mice (n = 10) ([Miranda et al., 2007]). The cumulative pain behavior that occurred 0–5 min (phase I, an immediate nociceptive phase) and 20–60 min (phase II, a later inflammatory phase) after injection was recorded for 60 min at 5 min intervals in individual cages to measure the total licking time in phases I and II, respectively.

[4] = tested on: hNav1.7; experiment: whole-cell patch clamp, CHO-Nav1.7 sodium current; format: cell-based, human
Description: (§1) Nav1.4-CHO cells and Nav1.7-CHO cells were maintained in Iscove’s modified Dulbecco’s medium (Gibco) supplemented with 10% (v/v) fetal bovine serum (FBS) and 200 μg/mL G418 (Sigma). All cells were cultured at 37 °C and 5% CO2 atmosphere. Mouse myoblasts C2C12, obtained from the Stem Cell Bank of The Chinese Academy of Sciences, were grown in Dulbecco’s modified Eagle‘s medium (DMEM) enriched with 10% heat-inactivated FBS, 2 mM L glutamine, 100 U/mL of penicillin, and 100 μg/mL of streptomycin. The C2C12 cells typically reached confluence in 3–5 days in 75-T flasks. For passaging, monolayers were treated with 0.25% trypsin for 3–5 min, rinsed twice with DMEM, and sub-cultured at a ratio of 1:4. Similarly, the Chinese hamster ovary (CHO) cells were cultured in IMDM medium supplemented with 10% fetal bovine serum, 1% penicillin/streptomycin, 100 μM hypoxanthine, and 16 μM thymidine. When 90% confluence was achieved, cells were separated by 0.25% trypsin EDTA, and patch clamp electrophysiology experiments were carried out.
(§2) Automatic electrophysiological platforms (NPC-1 and Port-a-Patch systems, […], Munich, Germany) and EPC10 amplifiers (HEKA Elektronik, Lambrecht, Germany) assessed the effects of recombinant ProTx2 and its mutants on CHO-Nav1.4 and CHO-Nav1.7. […]

[5] = tested on: hNav1.4; experiment: whole-cell patch clamp, CHO-Nav1.4 sodium current; format: cell-based, human
Description: as §1, §2

[6] = tested on: KM mice; experiment: forced swimming test; format: in vivo
Description: Additionally, a forced swimming test measured endurance following 7 days of treatment with ProTx2 or its mutants ([Porsolt et al., 1977]; [Galeotti et al., 2002]; [Xu et al., 2017]). Fifty male KM mice were randomly divided into five groups with 10 mice in each group. The groups were classified as normal saline control, ProTx2, R13A, R13D, and K27Y.
Following a 7-day treatment regimen, mice received injections of ProTx2 or its mutants and underwent forced swimming tests 20 min after the final treatment.

[7] = tested on: C2C12 cells; experiment: C2C12 cell viability (CCK8 assay); format: cell-based, mouse; conditions: CCK8, 450 nm, 18-h exposure, 0-160 μg/mL, serum-free, n = 5; R13D effect particularly between 100 and 160 μg/mL; relative to wild-type peptide
Description: as §1
C2C12 cell viability in response to ProTx2 or it mutants was evaluated using the CCK8 assay ([Pan et al., 2019]; [Ge et al., 2020]). […] After 18 h of treatment, cell viability was assessed by measuring the absorbance at 450 nm, following the addition of the CCK-8 reagent.

Chain of UniProt P35499 (P35499 whole entry): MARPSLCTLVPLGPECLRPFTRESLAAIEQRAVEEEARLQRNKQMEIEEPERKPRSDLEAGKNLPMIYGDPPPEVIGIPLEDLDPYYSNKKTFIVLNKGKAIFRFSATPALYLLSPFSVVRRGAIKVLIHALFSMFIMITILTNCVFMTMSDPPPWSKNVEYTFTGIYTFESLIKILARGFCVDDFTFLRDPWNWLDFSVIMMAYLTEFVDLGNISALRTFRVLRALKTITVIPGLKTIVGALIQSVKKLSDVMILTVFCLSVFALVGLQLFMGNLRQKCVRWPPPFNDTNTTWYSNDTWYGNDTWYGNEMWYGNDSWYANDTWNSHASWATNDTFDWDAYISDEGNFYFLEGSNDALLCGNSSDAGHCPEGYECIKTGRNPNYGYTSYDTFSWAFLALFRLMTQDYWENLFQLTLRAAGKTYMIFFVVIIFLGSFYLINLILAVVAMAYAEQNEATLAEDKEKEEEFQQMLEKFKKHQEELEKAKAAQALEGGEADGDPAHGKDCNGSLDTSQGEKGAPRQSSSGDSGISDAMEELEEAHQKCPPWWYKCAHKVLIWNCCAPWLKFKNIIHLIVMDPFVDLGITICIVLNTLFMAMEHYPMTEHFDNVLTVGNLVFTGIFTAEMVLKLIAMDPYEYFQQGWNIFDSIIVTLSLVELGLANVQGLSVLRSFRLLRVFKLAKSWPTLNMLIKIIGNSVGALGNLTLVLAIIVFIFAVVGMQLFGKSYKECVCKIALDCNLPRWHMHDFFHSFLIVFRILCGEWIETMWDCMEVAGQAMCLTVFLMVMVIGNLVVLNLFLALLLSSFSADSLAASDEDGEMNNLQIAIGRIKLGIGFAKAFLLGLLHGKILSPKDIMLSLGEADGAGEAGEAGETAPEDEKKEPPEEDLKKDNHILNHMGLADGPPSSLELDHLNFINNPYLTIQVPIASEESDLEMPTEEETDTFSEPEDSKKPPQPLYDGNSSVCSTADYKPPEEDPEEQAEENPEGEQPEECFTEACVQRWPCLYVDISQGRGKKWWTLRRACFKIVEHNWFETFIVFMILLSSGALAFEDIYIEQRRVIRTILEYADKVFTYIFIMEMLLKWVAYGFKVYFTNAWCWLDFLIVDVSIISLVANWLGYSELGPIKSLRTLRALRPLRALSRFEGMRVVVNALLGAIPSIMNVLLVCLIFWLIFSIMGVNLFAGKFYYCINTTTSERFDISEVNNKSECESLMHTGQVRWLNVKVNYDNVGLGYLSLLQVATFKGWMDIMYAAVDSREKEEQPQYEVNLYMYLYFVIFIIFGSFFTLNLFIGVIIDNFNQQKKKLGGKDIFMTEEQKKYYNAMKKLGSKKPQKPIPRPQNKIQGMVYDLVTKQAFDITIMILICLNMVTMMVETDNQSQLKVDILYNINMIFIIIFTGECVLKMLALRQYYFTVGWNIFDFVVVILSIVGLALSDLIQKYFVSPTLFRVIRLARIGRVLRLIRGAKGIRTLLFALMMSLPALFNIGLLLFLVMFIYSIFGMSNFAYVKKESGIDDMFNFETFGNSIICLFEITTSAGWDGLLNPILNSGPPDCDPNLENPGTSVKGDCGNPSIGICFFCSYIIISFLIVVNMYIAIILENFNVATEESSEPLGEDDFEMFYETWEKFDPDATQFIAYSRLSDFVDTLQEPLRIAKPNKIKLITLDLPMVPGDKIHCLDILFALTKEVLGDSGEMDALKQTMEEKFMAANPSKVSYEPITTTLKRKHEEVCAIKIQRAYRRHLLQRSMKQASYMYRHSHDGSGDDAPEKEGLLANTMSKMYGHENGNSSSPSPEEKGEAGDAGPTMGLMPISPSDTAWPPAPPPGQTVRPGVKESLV
Chain of UniProt Q15858 (Q15858 whole entry): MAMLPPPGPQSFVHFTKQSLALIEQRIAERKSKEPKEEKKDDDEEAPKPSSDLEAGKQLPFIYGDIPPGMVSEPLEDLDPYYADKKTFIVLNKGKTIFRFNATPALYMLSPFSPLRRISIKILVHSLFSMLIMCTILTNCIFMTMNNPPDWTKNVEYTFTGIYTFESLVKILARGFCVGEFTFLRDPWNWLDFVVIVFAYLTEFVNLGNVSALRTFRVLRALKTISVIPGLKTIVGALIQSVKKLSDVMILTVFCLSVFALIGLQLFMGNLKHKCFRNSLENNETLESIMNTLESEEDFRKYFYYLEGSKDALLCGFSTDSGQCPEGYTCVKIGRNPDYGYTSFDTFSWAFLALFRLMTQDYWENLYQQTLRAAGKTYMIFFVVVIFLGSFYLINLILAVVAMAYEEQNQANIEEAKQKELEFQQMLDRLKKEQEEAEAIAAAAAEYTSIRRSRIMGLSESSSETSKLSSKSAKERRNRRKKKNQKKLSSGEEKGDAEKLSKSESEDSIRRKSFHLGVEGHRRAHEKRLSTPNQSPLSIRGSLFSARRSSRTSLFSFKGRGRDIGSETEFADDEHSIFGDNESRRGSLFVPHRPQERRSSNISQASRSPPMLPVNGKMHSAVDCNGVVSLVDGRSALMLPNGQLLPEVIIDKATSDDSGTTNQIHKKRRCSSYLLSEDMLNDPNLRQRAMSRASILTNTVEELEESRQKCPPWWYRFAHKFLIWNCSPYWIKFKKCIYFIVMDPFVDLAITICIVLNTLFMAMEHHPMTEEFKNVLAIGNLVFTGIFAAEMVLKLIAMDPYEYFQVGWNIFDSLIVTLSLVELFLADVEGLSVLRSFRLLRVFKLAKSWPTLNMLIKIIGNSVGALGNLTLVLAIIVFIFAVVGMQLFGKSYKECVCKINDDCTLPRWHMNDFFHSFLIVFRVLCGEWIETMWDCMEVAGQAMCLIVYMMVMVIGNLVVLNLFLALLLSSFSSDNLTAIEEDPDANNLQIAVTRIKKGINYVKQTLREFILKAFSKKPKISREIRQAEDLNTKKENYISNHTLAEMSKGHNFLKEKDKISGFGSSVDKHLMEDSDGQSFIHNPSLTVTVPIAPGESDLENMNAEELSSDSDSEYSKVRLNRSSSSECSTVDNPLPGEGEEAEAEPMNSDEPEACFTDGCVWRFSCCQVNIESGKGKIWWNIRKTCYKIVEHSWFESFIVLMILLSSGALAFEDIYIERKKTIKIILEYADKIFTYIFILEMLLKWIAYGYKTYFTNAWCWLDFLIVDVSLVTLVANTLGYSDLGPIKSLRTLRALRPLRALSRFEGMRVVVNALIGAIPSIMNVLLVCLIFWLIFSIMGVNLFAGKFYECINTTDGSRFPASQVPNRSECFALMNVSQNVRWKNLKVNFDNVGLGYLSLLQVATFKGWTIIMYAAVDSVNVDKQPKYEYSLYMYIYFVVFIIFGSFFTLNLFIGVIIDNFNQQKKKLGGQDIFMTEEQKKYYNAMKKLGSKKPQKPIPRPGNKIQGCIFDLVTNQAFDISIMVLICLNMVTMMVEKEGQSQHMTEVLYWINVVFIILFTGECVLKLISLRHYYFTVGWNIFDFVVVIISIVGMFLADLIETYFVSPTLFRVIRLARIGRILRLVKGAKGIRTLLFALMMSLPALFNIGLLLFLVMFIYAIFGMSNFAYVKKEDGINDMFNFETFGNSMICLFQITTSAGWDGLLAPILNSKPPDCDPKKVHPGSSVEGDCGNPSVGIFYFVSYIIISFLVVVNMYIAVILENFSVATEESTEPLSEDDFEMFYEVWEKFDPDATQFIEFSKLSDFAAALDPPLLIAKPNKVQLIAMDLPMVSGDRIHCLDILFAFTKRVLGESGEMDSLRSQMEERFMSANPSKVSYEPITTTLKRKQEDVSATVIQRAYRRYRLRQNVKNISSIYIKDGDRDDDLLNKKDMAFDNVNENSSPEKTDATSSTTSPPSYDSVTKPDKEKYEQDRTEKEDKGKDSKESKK

Compound: ProTx2 (Protoxin-II), wild type, recombinant (from UniProt P83476 1-30) (peptide)
- peak sodium current amplitude (normalized) of hNav1.7-CHO cells, whole-cell patch clamp, peptide at 1 μM [1]: 82%
- peak sodium current amplitude (normalized) of hNav1.4-CHO cells, whole-cell patch clamp, peptide at 1 μM [2]: 50%

Compound: CN1CC[C@]23c4c5ccc(O)c4O[C@H]2[C@@H](O)C=C[C@H]3[C@H]1C5 [morphine, reference compound]
- total licking time, phase I (morphine) ([3]; mouse, in vivo, 5 mg/kg): 7.5 ± 1.6 s
- total licking time, phase II (morphine) ([3]; mouse, in vivo, 5 mg/kg): 42.1 ± 6.1 s

Compound: ProTx2 mutant R13D, recombinant (from UniProt P83476 1-30) (peptide)
- peak sodium current amplitude (normalized) of hNav1.7-CHO cells, whole-cell patch clamp, peptide at 1 μM [1]: 68%
- peak sodium current amplitude (normalized) of hNav1.4-CHO cells, whole-cell patch clamp, peptide at 1 μM [2]: 59%

Compound: R13D: single-point mutation (R13D) in ProTx2 (YCQKWMWTCDSEDKCCEGMVCRLWCKKKLW; ends and bridges not checked; cysteine pairing not given here)
- peak sodium current amplitude, hNav1.7 ([4]; 1 μM, normalized Na+ peak current at −30 mV, CHO cells, whole-cell, holding −80 mV, 22°C, 10 cells per set, R13D vs ProTx2 p < 0.01): 68%
- inhibition of hNav1.7 current ([4]; CHO-Nav1.7, whole-cell, relative to ProTx2 for R13D): pronouncedly intensified inhibition of hNav1.7
- analgesic effect ([3]; formalin model, 0.75 mg/kg peptide, tail vein, versus wild-type ProTx2, 0.75 mg/kg): maintained the analgesic effect in mice; also recorded: significantly alleviated pain in both the acute and inflammatory phases, outperforming the wild-type ProTx2
- total licking time, phase I ([3]; phase I (0–5 min), 0.75 mg/kg peptide, tail vein, half an hour before 20 μL 5% formalin, male KM mice, n = 10): 33.5 ± 1.6 s
- total licking time, phase II ([3]; phase II (20–60 min), 0.75 mg/kg peptide, tail vein, half an hour before 20 μL 5% formalin, male KM mice, n = 10): 128.0 ± 5.2 s
- peak sodium current amplitude, hNav1.4 ([5]; 1 μM, normalized Na+ peak current at −30 mV, CHO cells, whole-cell, holding −80 mV, 22°C, 10 cells per set): 59%
- inhibition of hNav1.4 current ([5]; CHO-Nav1.4, whole-cell, relative to ProTx2 for R13D): marginally diminished effect on hNav1.4
- swimming endurance / muscular toxicity ([6]; 7-day treatment, test 20 min after final treatment, male KM mice, n = 10, versus wild-type ProTx2): significantly prolonged endurance compared to the wild-type ProTx2 group, suggesting reduced muscular toxicity (p < 0.05)
- muscle toxicity ([6]; summary in abstract, compared with ProTx2): dramatically reducing its muscle toxicity compared with ProTx2
- C2C12 cellular viability [7]: significantly improved cellular viability in a concentration-dependent manner, particularly between 100 and 160 μg/mL
